From PubChem BioAssay AID322 (DTP/NCI, 2004)
“And” between values parts separate entries of the source, which are not always exact repeats. Equal values may be shown once. Toxic doses and inconclusive results are not listed.

System: CD2F1 mice, P388/ADR leukemia ip, median survival T/C
Experiment: NCI In Vivo Anticancer Drug Screen. Data for tumor model P388 Leukemia resistant to Adriamycin; NSC 123127, Developed at Scr 08 (intraperitoneal) in CD2F1 (CDF1) mice
Conditions: endpoint: median survival time, higher = longer survival
Experimental: The antitumor activity of compounds was measured in mice bearing transplantable tumors. Survival or tumor size were measured and the results are expressed as the measurement made in the treated group (T) divided by the measurement made in the vehicle treated control group (C). The tumor model used in this assay is P388 Leukemia resistant to Adriamycin; NSC 123127, Developed at Scr 08 (intraperitoneal) in CD2F1 (CDF1) mice

[1] = dose: 12.5 mg/kg/injection, schedule: Q01DX005 (ip), vehicle: water

O=C1CN(CCN2CC(=O)N(CN3CCOCC3)C(=O)C2)CC(=O)N1CN1CCOCC1
T/C [1]: 107 % of control
T/C (dose: 25.0 mg/kg/injection, schedule: Q01DX005 (ip), vehicle: water): 105 % of control
T/C (dose: 50.0 mg/kg/injection, schedule: Q01DX005 (ip), vehicle: water): 96 % of control
T/C (dose: 100.0 mg/kg/injection, schedule: Q01DX005 (ip), vehicle: water): 100 % of control

COc1cccc2c1C(CO)N1C(C#N)C3CC(C(=O)O)C(C1C2)N3C (stereo unspecified)
T/C (dose: 0.78 mg/kg/injection, schedule: Q01DX005 (ip), vehicle: suspension in saline): 186 % of control
T/C (dose: 1.57 mg/kg/injection, schedule: Q01DX005 (ip), vehicle: suspension in saline): 280 % of control
T/C (dose: 3.12 mg/kg/injection, schedule: Q01DX005 (ip), vehicle: saline): 200 % of control
T/C (dose: 3.13 mg/kg/injection, schedule: Q01DX005 (ip), vehicle: suspension in saline): 224 % of control
T/C (dose: 6.25 mg/kg/injection, schedule: Q01DX005 (ip), vehicle: saline): 248 % of control
T/C (dose: 6.25 mg/kg/injection, schedule: Q01DX005 (ip), vehicle: suspension in saline): 271 % of control
T/C (dose: 12.5 mg/kg/injection, schedule: Q01DX005 (ip), vehicle: saline): 266 % of control
T/C (dose: 12.5 mg/kg/injection, schedule: Q01DX005 (ip), vehicle: suspension in saline): 214 % of control
T/C (dose: 25.0 mg/kg/injection, schedule: Q01DX005 (ip), vehicle: saline): 272 % of control
T/C (dose: 25.0 mg/kg/injection, schedule: Q01DX005 (ip), vehicle: suspension in saline): 252 % of control

CN(C)CCN1C(=O)c2cccc3cc(N)cc(c23)C1=O
T/C (dose: 7.0 mg/kg/injection, schedule: Q01DX009 (ip), vehicle: saline with Tween-80): 109 % of control and 117 % of control
T/C (dose: 11.0 mg/kg/injection, schedule: Q01DX009 (ip), vehicle: saline with Tween-80): 116 % of control
T/C (dose: 16.0 mg/kg/injection, schedule: Q01DX009 (ip), vehicle: saline with Tween-80): 106 % of control and 113 % of control
T/C (dose: 24.0 mg/kg/injection, schedule: Q01DX009 (ip), vehicle: saline with Tween-80): 112 % of control and 116 % of control

CCOc1ccc(-c2nc3ccc(-c4nc5ccc(N6CCN(C)CC6)cc5[nH]4)cc3[nH]2)cc1
T/C (dose: 1.56 mg/kg/injection, schedule: Q01DX005 (ip), vehicle: water): 109 % of control
T/C (dose: 3.12 mg/kg/injection, schedule: Q01DX005 (ip), vehicle: water): 106 % of control
T/C (dose: 6.25 mg/kg/injection, schedule: Q01DX005 (ip), vehicle: water): 107 % of control
T/C [1]: 91 % of control

COc1cc(C)c(C2NC(=O)c3ccccc3N2)cc1C (stereo unspecified)
T/C (dose: 50.0 mg/kg/injection, schedule: Q01DX005 (ip), vehicle: Klucel (hydroxypropylcellulose) (HPC)): 109 % of control
T/C (dose: 100.0 mg/kg/injection, schedule: Q01DX005 (ip), vehicle: Klucel (hydroxypropylcellulose) (HPC)): 116 % of control
T/C (dose: 200.0 mg/kg/injection, schedule: Q01DX005 (ip), vehicle: Klucel (hydroxypropylcellulose) (HPC)): 113 % of control
T/C (dose: 288.0 mg/kg/injection, schedule: Q01DX005 (ip), vehicle: Klucel (hydroxypropylcellulose) (HPC)): 158 % of control
T/C (dose: 400.0 mg/kg/injection, schedule: Q01DX005 (ip), vehicle: Klucel (hydroxypropylcellulose) (HPC)): 124 % of control
T/C (dose: 480.0 mg/kg/injection, schedule: Q01DX005 (ip), vehicle: Klucel (hydroxypropylcellulose) (HPC)): 153 % of control
T/C (dose: 800.0 mg/kg/injection, schedule: Q01DX005 (ip), vehicle: Klucel (hydroxypropylcellulose) (HPC)): 155 % of control and 206 % of control
T/C (dose: 1333.0 mg/kg/injection, schedule: Q01DX005 (ip), vehicle: Klucel (hydroxypropylcellulose) (HPC)): 207 % of control

CSC1SCC2C(=O)N(C)C(C(C)C)C(=O)OCC(NC(=O)c3cnc4ccccc4n3)C(=O)NC(C)C(=O)N(C)C1C(=O)N(C)C(C(C)C)C(=O)OCC(NC(=O)c1cnc3ccccc3n1)C(=O)NC(C)C(=O)N2C (stereo unspecified)
T/C (dose: 44.0 micrograms/kg/injection, schedule: Q01DX005 (ip), vehicle: saline): 152 % of control
T/C (dose: 100.0 micrograms/kg/injection, schedule: Q01DX005 (ip), vehicle: saline): 151 % of control
T/C (dose: 150.0 micrograms/kg/injection, schedule: Q01DX005 (ip), vehicle: saline): 152 % of control

O=C1NC2(CCCCC2)C(=O)N1CCN(CCCl)CCCl
T/C (dose: 2.6 mg/kg/injection, schedule: Q01DX009 (ip), vehicle: Klucel (hydroxypropylcellulose) (HPC)): 195 % of control
T/C (dose: 4.0 mg/kg/injection, schedule: Q01DX009 (ip), vehicle: Klucel (hydroxypropylcellulose) (HPC)): 236 % of control
T/C (dose: 6.0 mg/kg/injection, schedule: Q01DX009 (ip), vehicle: Klucel (hydroxypropylcellulose) (HPC)): 226 % of control
T/C (dose: 9.0 mg/kg/injection, schedule: Q01DX009 (ip), vehicle: Klucel (hydroxypropylcellulose) (HPC)): 239 % of control

O=NNc1cnccn1
T/C (dose: 11.0 mg/kg/injection, schedule: Q01DX009 (ip), vehicle: water): 165 % of control and 171 % of control
T/C (dose: 17.0 mg/kg/injection, schedule: Q01DX009 (ip), vehicle: water): 201 % of control and 206 % of control
T/C (dose: 25.0 mg/kg/injection, schedule: Q01DX009 (ip), vehicle: water): 240 % of control and 246 % of control
T/C (dose: 37.5 mg/kg/injection, schedule: Q01DX009 (ip), vehicle: water): 277 % of control and 313 % of control
T/C (dose: 56.0 mg/kg/injection, schedule: Q01DX009 (ip), vehicle: water): 107 % of control and 117 % of control

NCCCNCCCCNC(=O)C(O)NC(=O)CCCCCCN=C(N)N (stereo unspecified)
T/C (dose: 4.4 mg/kg/injection, schedule: Q01DX009 (ip), vehicle: other): 195 % of control
T/C (dose: 4.4 mg/kg/injection, schedule: Q01DX009 (ip), vehicle: saline): 193 % of control
T/C (dose: 6.7 mg/kg/injection, schedule: Q01DX009 (ip), vehicle: other): 195 % of control
T/C (dose: 6.7 mg/kg/injection, schedule: Q01DX009 (ip), vehicle: saline): 198 % of control
T/C (dose: 10.0 mg/kg/injection, schedule: Q01DX009 (ip), vehicle: other): 205 % of control
T/C (dose: 10.0 mg/kg/injection, schedule: Q01DX009 (ip), vehicle: saline): 206 % of control
T/C (dose: 15.0 mg/kg/injection, schedule: Q01DX009 (ip), vehicle: other): 209 % of control
T/C (dose: 15.0 mg/kg/injection, schedule: Q01DX009 (ip), vehicle: saline): 212 % of control
T/C (dose: 22.5 mg/kg/injection, schedule: Q01DX009 (ip), vehicle: other): 162 % of control
T/C (dose: 22.5 mg/kg/injection, schedule: Q01DX009 (ip), vehicle: saline): 219 % of control

COc1cc(NS(C)(=O)=O)ccc1Nc1c2ccccc2nc2ccccc12
T/C (dose: 1.25 mg/kg/injection, schedule: Q04DX003 (ip), vehicle: other): 102 % of control
T/C (dose: 2.5 mg/kg/injection, schedule: Q04DX003 (ip), vehicle: other): 109 % of control
T/C (dose: 2.59 mg/kg/injection, schedule: Q04DX003 (ip), vehicle: other): 107 % of control
T/C (dose: 4.32 mg/kg/injection, schedule: Q04DX003 (ip), vehicle: other): 107 % of control
T/C (dose: 5.0 mg/kg/injection, schedule: Q04DX003 (ip), vehicle: other): 109 % of control
T/C (dose: 7.2 mg/kg/injection, schedule: Q04DX003 (ip), vehicle: other): 104 % of control
T/C (dose: 10.0 mg/kg/injection, schedule: Q04DX003 (ip), vehicle: other): 109 % of control
T/C (dose: 12.0 mg/kg/injection, schedule: Q04DX003 (ip), vehicle: other): 106 % of control
T/C (dose: 20.0 mg/kg/injection, schedule: Q04DX003 (ip), vehicle: other): 105 % of control and 113 % of control

CO[C@H](/C(C)=C/C=C/C(C)=C/c1coc(C)n1)[C@H](C)[C@H]1C[C@@H](O)[C@@]2(C)O[C@H]2/C=C/[C@@H](C)[C@@H]2C[C@@H](CC(=O)O2)C[C@H]2O[C@@H]2C(=O)O1
T/C (dose: 0.04 mg/kg/injection, schedule: Q01DX005 (ip), vehicle: Klucel (hydroxypropylcellulose) (HPC)): 105 % of control
T/C (dose: 0.06 mg/kg/injection, schedule: Q01DX005 (ip), vehicle: Klucel (hydroxypropylcellulose) (HPC)): 109 % of control and 113 % of control
T/C (dose: 0.08 mg/kg/injection, schedule: Q01DX005 (ip), vehicle: Klucel (hydroxypropylcellulose) (HPC)): 114 % of control
T/C (dose: 0.09 mg/kg/injection, schedule: Q01DX005 (ip), vehicle: Klucel (hydroxypropylcellulose) (HPC)): 112 % of control
T/C (dose: 0.1 mg/kg/injection, schedule: Q01DX005 (ip), vehicle: Klucel (hydroxypropylcellulose) (HPC)): 117 % of control
T/C (dose: 0.12 mg/kg/injection, schedule: Q01DX005 (ip), vehicle: Klucel (hydroxypropylcellulose) (HPC)): 97 % of control
T/C (dose: 0.13 mg/kg/injection, schedule: Q01DX005 (ip), vehicle: Klucel (hydroxypropylcellulose) (HPC)): 109 % of control
T/C (dose: 0.14 mg/kg/injection, schedule: Q01DX005 (ip), vehicle: Klucel (hydroxypropylcellulose) (HPC)): 96 % of control
T/C (dose: 0.16 mg/kg/injection, schedule: Q01DX005 (ip), vehicle: Klucel (hydroxypropylcellulose) (HPC)): 107 % of control
T/C (dose: 0.2 mg/kg/injection, schedule: Q01DX005 (ip), vehicle: Klucel (hydroxypropylcellulose) (HPC)): 102 % of control
